According to ChEMBL document CHEMBL4814071, “Synthesis and antibacterial study of cell-penetrating peptide conjugated trifluoroacetyl and thioacetyl lysine modified peptides” (Eur J Med Chem, 2021):
Counter-ions that a name gives are not always drawn. Calls of active or inactive are those of the source. The calls are words filed in the database; no cut-off is given here. Where a SMILES comes first, the peptide text is derived from it. The star is where a group is joined. Tfa = O=C(C(F)(F)F)*

Columns and labels:
Staphylococcus aureus [1] = assay: Synergistic antibacterial activity against Staphylococcus aureus assessed as fractional inhibitory concentration index incubated for 24 hrs in presence of streptomycin; type: functional
Lipid bilayer [2] = assay: Binding affinity to bacterial inner membrane mimic POPE/POPG (3:1) LUVs assessed as increase in intensity by one-dimensional 19F NMR based analysis
Lipid bilayer [3] = assay: Binding affinity to mammalian membrane mimic DOPC/40% cholesterol assessed as calcein leakage at 20 uM by fluorescence based assay; type: ADME
Pseudomonas aeruginosa [4] = assay: Potentiation of polymyxin B-induced antibacterial activity against Pseudomonas aeruginosa assessed as polymyxin B MIC incubated for 24 hrs by microplate reader method; type: functional
Staphylococcus aureus [5] = assay: Potentiation of streptomycin-induced antibacterial activity against Staphylococcus aureus assessed as streptomycin MIC incubated for 24 hrs by microplate reader method; type: functional
Escherichia coli [6] = assay: Potentiation of polymyxin B-induced antibacterial activity against Escherichia coli assessed as polymyxin B MIC incubated for 24 hrs by microplate reader method; type: functional
[7] = Induction of yeast killing at 50 uM incubated for 72 hrs in presence of Ura3 and absence of FOA by absorbance based analysis; settings: saccharomyces cerevisiae
[8] = target: NAD-dependent histone deacetylase SIR2 (Saccharomyces cerevisiae S288c) (UniProt P06700); assay: Inhibition of yeast sirtuin2-mediated Ura3 transcriptional silencing at telomeric locus assessed as yeast killing at 50 uM incubated for 72 hrs in presence of FOA by absorbance based analysis
Chain of NAD-dependent histone deacetylase SIR2 (Saccharomyces cerevisiae S288c) (P06700 whole entry): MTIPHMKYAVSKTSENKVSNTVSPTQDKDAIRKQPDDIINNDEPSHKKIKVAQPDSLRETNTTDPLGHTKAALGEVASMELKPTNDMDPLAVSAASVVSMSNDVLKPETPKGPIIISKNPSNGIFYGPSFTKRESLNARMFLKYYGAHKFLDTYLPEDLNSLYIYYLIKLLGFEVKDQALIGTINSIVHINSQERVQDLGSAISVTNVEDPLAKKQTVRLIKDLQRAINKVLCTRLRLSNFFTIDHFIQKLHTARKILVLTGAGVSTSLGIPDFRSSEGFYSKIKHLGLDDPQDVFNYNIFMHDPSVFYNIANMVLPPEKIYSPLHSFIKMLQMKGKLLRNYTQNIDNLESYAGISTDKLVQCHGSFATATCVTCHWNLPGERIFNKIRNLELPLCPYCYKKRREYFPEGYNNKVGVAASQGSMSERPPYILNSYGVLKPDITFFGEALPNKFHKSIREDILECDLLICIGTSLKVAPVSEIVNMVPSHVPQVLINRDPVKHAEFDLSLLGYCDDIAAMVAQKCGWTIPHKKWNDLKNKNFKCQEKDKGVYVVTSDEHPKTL

Escherichia coli [9] = assay: Antibacterial activity against Escherichia coli assessed as reduction in microbial growth after 24 hrs in presence of polymyxin B by microplate reader method; type: functional
Staphylococcus aureus [10] = assay: Antibacterial activity against Staphylococcus aureus assessed as reduction in microbial growth after 24 hrs in presence of streptomycin by microplate reader method; type: functional
Staphylococcus aureus [11] = assay: Antibacterial activity against Staphylococcus aureus assessed as reduction in microbial growth after 24 hrs by microplate reader method; type: functional
Escherichia coli [12] = assay: Antibacterial activity against Escherichia coli assessed as reduction in microbial growth after 24 hrs by microplate reader method; type: functional
Pseudomonas aeruginosa [13] = assay: Antibacterial activity against Pseudomonas aeruginosa assessed as reduction in microbial growth after 24 hrs by microplate reader method; type: functional
Staphylococcus aureus [14] = assay: Antibiofilm activity against Staphylococcus aureus assessed as biofilm eradication incubated for 24 hrs by crystal violet staining assay; type: functional
Escherichia coli [15] = assay: Antibiofilm activity against Escherichia coli assessed as biofilm eradication incubated for 24 hrs by crystal violet staining assay; type: functional
Staphylococcus aureus [16] = assay: Antibiofilm activity against Staphylococcus aureus assessed as inhibition of biofilm formation incubated for 48 hrs by crystal violet staining assay; type: functional
Escherichia coli [17] = assay: Antibiofilm activity against Escherichia coli assessed as as inhibition of biofilm formation incubated for 48 hrs by crystal violet staining assay; type: functional
Cell membrane [18] = assay: Disruption of membrane integrity in Escherichia coli at 2 times MIC measured after 20 mins by SEM analysis
Cell membrane [19] = assay: Disruption of membrane integrity in Staphylococcus aureus at 2 times MIC measured after 20 mins by SEM analysis
Escherichia coli [20] = assay: Synergistic antibacterial activity against Escherichia coli assessed as fractional inhibitory concentration index incubated for 24 hrs in presence of Polymyxin B; type: functional
Pseudomonas aeruginosa [21] = assay: Synergistic antibacterial activity against Pseudomonas aeruginosa assessed as fractional inhibitory concentration index incubated for 24 hrs in presence of Polymyxin B; type: functional
Lipid bilayer [22] = assay: Binding affinity to bacterial inner membrane mimic DOPE/DOPG (3:1) large unilamellar vesicles assessed as calcein leakage at 20 uM by fluorescence based assay
[23] = Hemolytic activity against mouse RBC at 1000 uM measured after 1 hr by microplate reader analysis; type: cell-based, Erythrocyte; settings: mouse red blood cells (erythrocytes), read-out: Activity
HeLa = assay: Cytotoxicity against human HeLa cells assessed as reduction in cell viability incubated for 48 hrs by MTT assay; type: cell-based
BE(2)-C = assay: Cytotoxicity against human BE(2)-C cells assessed as reduction in cell viability incubated for 48 hrs by MTT assay; type: cell-based
Staphylococcus aureus [24] = assay: Antibiofilm activity against Staphylococcus aureus assessed as biofilm eradication at 2XMBEC incubated for 12 hrs by SYTO9/PI staining based microscopic analysis; type: functional, organism-based
Escherichia coli [25] = assay: Antibiofilm activity against Escherichia coli assessed as biofilm eradication at 2XMBEC incubated for 12 hrs by SYTO9/PI staining based microscopic analysis; type: functional, organism-based
[26] = Inhibition of transcriptional machinery using Puc19-lacCONS plasmid DNA and Escherichia coli RNA polymerase-sigma70 holoenzyme at 40 uM incubated for 35 mins followed by NTP addition for 30 mins by spectrofluorometer analysis; type: functional; settings: time 65.0 min
Pseudomonas aeruginosa [27] = assay: Antibacterial activity against Pseudomonas aeruginosa assessed as reduction in microbial growth after 24 hrs in presence of polymyxin B by microplate reader method; type: functional
Staphylococcus aureus [28] = assay: Potentiation of streptomycin-induced antibacterial activity against Staphylococcus aureus assessed as fold change in streptomycin MIC incubated for 24 hrs by microplate reader method; type: functional

## CC(=O)N[C@@H](CCCCN)C(=O)NCC(=O)N[C@@H](CC(C)C)C(=O)N[C@@H](CCCNC(=N)N)C(=O)N[C@@H](CCCCNC(=O)C(F)(F)F)C(=O)N[C@@H](Cc1ccccc1)C(=O)NCC(=O)N[C@@H](C)C(=O)N[C@@H](CCCCN)C(=O)N[C@@H](CCCNC(=N)N)C(=O)N[C@@H](Cc1cnc[nH]1)C(=O)N[C@@H](CCCNC(=N)N)C(=O)N[C@@H](CS)C(N)=O (Ac-KGLRK(Tfa)FGAKRHRC-NH2)
Staphylococcus aureus [1]
  fractional inhibitory concentration index (FICI): 0.19
Lipid bilayer [2]
  Activity: Active
Lipid bilayer [3]
  Activity: < 20%
Pseudomonas aeruginosa [4]
  MIC: 0.1 µM
Staphylococcus aureus [5]
  MIC: 0.38 µM
Escherichia coli [6]
  MIC: 0.05 µM
[7]
  Activity: Toxic
[8]
  inhibition: Active
Escherichia coli [9]
  MIC: 15.6 µM
Staphylococcus aureus [10]
  MIC: 0.31 µM
Staphylococcus aureus [11]
  MIC: 1.5 µM
Escherichia coli [12]
  MIC: 125 µM
Pseudomonas aeruginosa [13]
  MIC: > 250 µM
Staphylococcus aureus [14]
  MBEC: 12.5 µM
Escherichia coli [15]
  MBEC: inactive
Staphylococcus aureus [16]
  MBIC: 6.3 µM
Escherichia coli [17]
  MBIC: inactive
Cell membrane [18]
  Activity: inactive
Cell membrane [19]
  Activity: inactive
Escherichia coli [20]
  fractional inhibitory concentration index (FICI): 0.36
Pseudomonas aeruginosa [21]
  fractional inhibitory concentration index (FICI): 0.36
Lipid bilayer [22]
  Activity: 70%
[23]
  hemolysis at 1 h, 1000 µM: < 5%
HeLa
  IC50: 94.6 µM
BE(2)-C
  IC50: 78 µM
Staphylococcus aureus [24]
  Activity: Active
Escherichia coli [25]
  Activity: Active
[26]
  inhibition: Active
Pseudomonas aeruginosa [27]
  MIC: 25 µM
Staphylococcus aureus [28]
  fold change (FC): 6
